# Reference: patent US20260200939A1, “MOLECULAR GLUE DEGRADER COMPOUNDS AND USES THEREOF” (Novartis AG, priority 2022, published 2026)
# Target: T1, CDK4 (Homo sapiens, UniProt P11802)
# T1 construct: endogenous in cells; host or cells: C33A
# Assay: CDK4 Degradation Assay, Western blotting
# Assay type: cell-based
# Method: C33A cells were purchased from American Type Culture Collection (ATCC) and were cultured in Dulbecco's Modified Eagle Medium (DMEM) containing 10% (v/v) fetal bovine serum (FBS) and maintained at 37° C. with 5% CO2. 22RV1 cells were purchased from the ATCC and were cultured in RPMI-1640 Medium containing 10% (v/v) FBS and maintained at 37° C. with 5% CO2. HEK293T cells were obtained from the UC Berkeley Cell Culture Facility and were cultured in DMEM containing 10% (v/v) FBS and maintained at 37° C. with 5% CO2. K562 cells were obtained from the UC Berkeley Cell Culture Facility and were cultured in Iscove's Modified Dulbecco's Medium (IMDM) containing 10% (v/v) FBS and maintained at 37° C. with 5% CO2. MV-4-11 cells were obtained from the ATCC and were cultured in IMDM containing 10% (v/v) FBS and maintained at 37° C. with 5% CO2. A549 cells were obtained from the ATCC and were cultured in F-12K Medium containing 10% (v/v) FBS and maintained at 37° C. with 5% CO2. Mino cells were obtained from the ATCC and were cultured in RPMI-1640 Medium containing 10% (v/v) FBS and maintained at 37° C. with 5% CO2. LNCaP cells were obtained from the ATCC and were cultured in RPMI-1640 Medium containing 10% (v/v) FBS and maintained at 37° C. with 5% CO2. Unless otherwise specified, all cell culture materials were purchased from Gibco. It is not known whether HEK293T cells are from male or female origin.
# Cells were washed twice with cold PBS, scraped, and pelleted by centrifugation (700 g, 5 min, 4° C.). Pellets were resuspended in PBS, sonicated, clarified by centrifugation (12,000 g, 10 min, 4° C.), and lysate was transferred to new low-adhesion microcentrifuge tubes. Proteome concentrations were determined using BCA assay and lysate was diluted to appropriate working concentrations.
# Proteins were resolved by SDS/PAGE and transferred to nitrocellulose membranes using the Trans-Blot Turbo transfer system (Bio-Rad). Membranes were blocked with 5% BSA in Tris-buffered saline containing Tween 20 (TBS-T) solution for 30 min at RT, washed in TBS-T, and probed with primary antibody diluted in recommended diluent per manufacturer overnight at 4° C. After 3 washes with TBS-T, the membranes were incubated in the dark with IR680- or IR800-conjugated secondary antibodies at 1:10,000 dilution in 5% BSA in TBS-T at RT for 1 h. After 3 additional washes with TBST, blots were visualized using an Odyssey Li-Cor fluorescent scanner. The membranes were stripped using ReBlot Plus Strong Antibody Stripping Solution (EMD Millipore) when additional primary antibody incubations were performed. Antibodies used in this study were CDK4 (Abcam ab108357), Vinculin (Abcam ab129002), GAPDH (Cell Signaling Technology 14C10), RNF126 (Santa Cruz Biotechnology sc-376005), BRD4 (Abcam ab128874), Beta Actin (Cell Signaling Technology 13E5), PDE5 (Abcam ab259945), AR-V7 (Abcam ab273500), c-Abl (Santa Cruz Biotechnology sc-23), SMARCA2 (Abcam ab240648), LRRK2 (Abcam ab133474), BTK (Cell Signaling Technology D3H5), Androgen Receptor (Abcam ab133273).
row,DC50,SMILES
1,> 10 µM,"CN(C)C(=O)c1cc2cnc(Nc3ccc(N4CCN(C(=O)/C=C/C(=O)c5ccccc5)CC4)cn3)nc2n1C1CCCC1 [Compound 258, (E)-7-cyclopentyl-N,N-dimethyl-2-((5-(4-(4-oxo-4-phenylbut-2-enoyl)piperazin-1-yl)pyridin-2-yl)amino)-7H-pyrrolo[2,3-d]pyrimidine-6-carboxamide]"
2,> 10 µM,"CN(C)C(=O)c1cc2cnc(Nc3ccc(N4CCN(C(=O)/C=C/C(=O)c5cccc(Br)c5)CC4)cn3)nc2n1C1CCCC1 [Compound 259, (E)-2-((5-(4-(4-(3-bromophenyl)-4-oxobut-2-enoyl)piperazin-1-yl)pyridin-2-yl)amino)-7-cyclopentyl-N,N-dimethyl-7H-pyrrolo[2,3-d]pyrimidine-6-carboxamide]"
3,> 10 µM,"CN(C)C(=O)c1cc2cnc(Nc3ccc(N4CCN(C(=O)/C=C/C(=O)c5ccc6c(c5)OCC6)CC4)cn3)nc2n1C1CCCC1 [Compound 260, (E)-7-cyclopentyl-2-((5-(4-(4-(2,3-dihydrobenzofuran-6-yl)-4-oxobut-2-enoyl)piperazin-1-yl)pyridin-2-yl)amino)-N,N-dimethyl-7H-pyrrolo[2,3-d]pyrimidine-6-carboxamide]"
4,1 to 10 µM,"Cc1ccc(C(=O)/C=C/C(=O)N2CCN(c3ccc(Nc4ncc5cc(C(=O)N(C)C)n(C6CCCC6)c5n4)nc3)CC2)cc1 [Compound 262, (E)-7-cyclopentyl-N,N-dimethyl-2-((5-(4-(4-oxo-4-(p-tolyl)but-2-enoyl)piperazin-1-yl)pyridin-2-yl)amino)-7H-pyrrolo[2,3-d]pyrimidine-6-carboxamide]"
5,> 10 µM,"Cc1ccccc1C(=O)/C=C/C(=O)N1CCN(c2ccc(Nc3ncc4cc(C(=O)N(C)C)n(C5CCCC5)c4n3)nc2)CC1 [Compound 263, (E)-7-cyclopentyl-N,N-dimethyl-2-((5-(4-(4-oxo-4-(o-tolyl)but-2-enoyl)piperazin-1-yl)pyridin-2-yl)amino)-7H-pyrrolo[2,3-d]pyrimidine-6-carboxamide]"
6,> 10 µM,"COc1ccc(C(=O)/C=C/C(=O)N[C@H]2C[C@@H](Nc3ccc(Nc4ncc5cc(C(=O)N(C)C)n(C6CCCC6)c5n4)nc3)C2)cc1 [Compound 269, 7-cyclopentyl-2-((5-(((1s,3s)-3-((E)-4-(4-methoxyphenyl)-4-oxobut-2-enamido)cyclobutyl)amino)pyridin-2-yl)amino)-N,N-dimethyl-7H-pyrrolo[2,3-d]pyrimidine-6-carboxamide]"
7,> 10 µM,"COc1ccc(C(=O)/C=C/C(=O)N[C@H]2C[C@H](Nc3ccc(Nc4ncc5cc(C(=O)N(C)C)n(C6CCCC6)c5n4)nc3)C2)cc1 [Compound 270, 7-cyclopentyl-2-((5-(((1r,3r)-3-((E)-4-(4-methoxyphenyl)-4-oxobut-2-enamido)cyclobutyl)amino)pyridin-2-yl)amino)-N,N-dimethyl-7H-pyrrolo[2,3-d]pyrimidine-6-carboxamide]"
8,> 10 µM,"COc1ccc(C(=O)/C=C/C(=O)N(C)CCN(C)c2ccc(Nc3ncc4cc(C(=O)N(C)C)n(C5CCCC5)c4n3)nc2)cc1 [Compound 272, (E)-7-cyclopentyl-2-((5-((2-(4-(4-methoxyphenyl)-N-methyl-4-oxobut-2-enamido)ethyl)(methyl)amino)pyridin-2-yl)amino)-N,N-dimethyl-7H-pyrrolo[2,3-d]pyrimidine-6-carboxamide]"
9,1 to 10 µM,"COc1ccc(C(=O)/C=C/C(=O)N2CCN(c3ccc(Nc4ncc5cc(C(=O)N(C)C)n(C6CCCC6)c5n4)nc3)C[C@H]2C)cc1 [Compound 273, (R,E)-7-cyclopentyl-2-((5-(4-(4-(4-methoxyphenyl)-4-oxobut-2-enoyl)-3-methylpiperazin-1-yl)pyridin-2-yl)amino)-N,N-dimethyl-7H-pyrrolo[2,3-d]pyrimidine-6-carboxamide]"
10,1 to 10 µM,"COc1ccc(C(=O)/C=C/C(=O)N2CCN(c3ccc(Nc4ncc5cc(C(=O)N(C)C)n(C6CCCC6)c5n4)nc3)[C@@H](C)C2)cc1 [Compound 274, (S,E)-7-cyclopenty1-2-((5-(4-(4-(4-methoxyphenyl)-4-oxobut-2-enoyl)-2-methylpiperazin-1-yl)pyridin-2-yl)amino)-N,N-dimethyl-7H-pyrrolo[2,3-d]pyrimidine-6-carboxamide]"

# The next lines start with the compound.
row,SMILES,DC50
1,"CN(C)C(=O)c1cc2cnc(Nc3ccc(N4CCN(C(=O)/C=C/C(=O)c5ccc6c(c5)CCO6)CC4)cn3)nc2n1C1CCCC1 [Compound 261, (E)-7-cyclopentyl-2-((5-(4-(4-(2,3-dihydrobenzofuran-5-yl)-4-oxobut-2-enoyl)piperazin-1-yl)pyridin-2-yl)amino)-N,N-dimethyl-7H-pyrrolo[2,3-d]pyrimidine-6-carboxamide]",> 10 µM
2,"COc1ccc(C(=O)/C=C/C(=O)N2CCN(c3ccc(Nc4ncc5cc(C(=O)N(C)C)n(C6CCCC6)c5n4)nc3)CC2)c(F)c1 [Compound 264, (E)-7-cyclopentyl-2-((5-(4-(4-(2-fluoro-4-methoxyphenyl)-4-oxobut-2-enoyl)piperazin-1-yl)pyridin-2-yl)amino)-N,N-dimethyl-7H-pyrrolo[2,3-d]pyrimidine-6-carboxamide]",> 10 µM
3,"COc1cc(F)ccc1C(=O)/C=C/C(=O)N1CCN(c2ccc(Nc3ncc4cc(C(=O)N(C)C)n(C5CCCC5)c4n3)nc2)CC1 [Compound 265, (E)-7-cyclopentyl-2-((5-(4-(4-(4-fluoro-2-methoxyphenyl)-4-oxobut-2-enoyl)piperazin-1-yl)pyridin-2-yl)amino)-N,N-dimethyl-7H-pyrrolo[2,3-d]pyrimidine-6-carboxamide]",> 10 µM
4,"COc1ccc(C(=O)/C=C/C(=O)N2CCN(c3ccc(Nc4ncc5cc(C(=O)N(C)C)n(C6CCCC6)c5n4)nc3)CC2)cc1F [Compound 266, (E)-7-cyclopentyl-2-((5-(4-(4-(3-fluoro-4-methoxyphenyl)-4-oxobut-2-enoyl)piperazin-1-yl)pyridin-2-yl)amino)-N,N-dimethyl-7H-pyrrolo[2,3-d]pyrimidine-6-carboxamide]",> 10 µM
5,"CN(C)C(=O)c1cc2cnc(Nc3ccc(N4CCN(C(=O)/C=C/C(=O)c5ccc(C#N)cc5)CC4)cn3)nc2n1C1CCCC1 [Compound 267, (E)-2-((5-(4-(4-(4-cyanophenyl)-4-oxobut-2-enoyl)piperazin-1-yl)pyridin-2-yl)amino)-7-cyclopentyl-N,N-dimethyl-7H-pyrrolo[2,3-d]pyrimidine-6-carboxamide]",> 10 µM
6,"COc1ccc(C(=O)/C=C/C(=O)N2CCN(c3ccc(Nc4ncc5cc(C(=O)N(C)C)n(C6CCCC6)c5n4)nc3)CC2)c(Cl)c1 [Compound 268, (E)-2-((5-(4-(4-(2-chloro-4-methoxyphenyl)-4-oxobut-2-enoyl)piperazin-1-yl)pyridin-2-yl)amino)-7-cyclopentyl-N,N-dimethyl-7H-pyrrolo[2,3-d]pyrimidine-6-carboxamide]",> 10 µM
7,"COc1ccc(C(=O)/C=C/C(=O)N2CCN(c3ccc(Nc4ncc5cc(C(=O)N(C)C)n(C6CCCC6)c5n4)nc3)[C@H](C)C2)cc1 [Compound 271, (R,E)-7-cyclopentyl-2-((5-(4-(4-(4-methoxyphenyl)-4-oxobut-2-enoyl)-2-methylpiperazin-1-yl)pyridin-2-yl)amino)-N,N-dimethyl-7H-pyrrolo[2,3-d]pyrimidine-6-carboxamide]",1 to 10 µM
